According to paper PMC7770263 (The Journal of International Medical Research, 2020):

Legend:
[1] = Pharmacokinetic tests in rats; assay type: in vivo, Sprague–Dawley rats; conditions: for absorption in vivo (in words) / elimination rate (in words): intravenous injection of the compound preparation
[2] = Stability test of QC samples in rat plasma; assay type: in vitro ADME; conditions: for Extracted sample stability, Accuracy / Extracted sample stability, Concentration: extracted rat plasma samples; for Extracted sample stability, Accuracy / Long-term stability, Accuracy: relative error; for stability values (short- and long-term stability) / Short-term stability, Concentration / Long-term stability, Accuracy: rat plasma; for stability values (short- and long-term stability): all QC concentrations, room temperature 24 hours and −20°C 30 days; for Short-term stability, Concentration: room temperature for 24 hours; for Long-term stability, Accuracy: −20°C for 30 days
[3] = male, Sprague-Dawley, rat, plasma, iv, 144 mg/kg
[4] = rat, intravenous injection, 144 mg/kg, mean ± standard deviation
[5] = nominal concentration 300 ng/mL
[6] = nominal concentration 2400 ng/mL
[7] = rat plasma, intravenous injection of ticarcillin disodium and clavulanate, 144 mg/kg
[8] = rat plasma, intravenous injection, 144 mg/kg, mean ± standard deviation
[9] = nominal concentration 8000 ng/mL

Compound	absorption in vivo (in words) ([1]; rat)	elimination rate (in words) ([1]; rat)	CL(/F) (clearance) [1, 4] [mL/min/kg]	Extracted sample stability, Concentration [2, 6]	Extracted sample stability, Accuracy [2, 6] [%]	stability values (short- and long-term stability) [2]	Short-term stability, Concentration [2, 6] [ng/mL]	Long-term stability, Accuracy [2, 6] [%]	tmax [1, 7] [min]	AUC0-t [1, 8]	AUC0-∞ [1, 8]	Vss obs (observed volume of distribution at steady state) [1, 4] [L/kg]	Extracted sample stability, Concentration ([2]; nominal concentration 30 ng/mL) [ng/mL]	Extracted sample stability, Accuracy ([2]; nominal concentration 30 ng/mL) [%]	Extracted sample stability, Concentration [2, 9] [ng/mL]	Extracted sample stability, Accuracy [2, 9] [%]	Short-term stability, Concentration ([2]; nominal concentration 30 ng/mL) [ng/mL]	Short-term stability, Concentration [2, 9] [ng/mL]	Long-term stability, Accuracy ([2]; nominal concentration 30 ng/mL) [%]	Long-term stability, Accuracy [2, 9] [%]	other results
O=C(O)[C@H]1/C(=C/CO)O[C@@H]2CC(=O)N21 [Clavulanate]	rapidly absorbed in vivo	shortest t1/2 and most rapid elimination	5780 ± 3400	2344 ± 98 ng/mL	−2.3	−4.3% to 3.2	2389 ± 118	−1.1													AUC0-t [1, 3]: 541 ± 254 ng·h/mL; AUC(0-inf) [1, 3]: 559 ± 251 ng·h/mL; Cmax [1, 3]: 1660 ± 667 ng/mL; half-life [1, 3]: 10.2 ± 2.4 min; tmax [1, 3]: 4.98 min; Extracted sample stability, Accuracy ([2]; nominal concentration 80 ng/mL): −2.8%; Extracted sample stability, Concentration [2, 5]: 295 ± 17 ng/mL; Extracted sample stability, Accuracy [2, 5]: −1.7%; Short-term stability, Concentration ([2]; nominal concentration 80 ng/mL): 81.4 ± 0.6 ng/mL; Short-term stability, Concentration [2, 5]: 305 ± 11 ng/mL; Long-term stability, Accuracy ([2]; nominal concentration 80 ng/mL): 3.2%; Long-term stability, Accuracy [2, 5]: −3.7%
CC1(C)S[C@@H]2[C@H](NC(=O)[C@H](C(=O)O)c3ccsc3)C(=O)N2[C@H]1C(=O)O [Ticarcillin R]	rapidly absorbed in vivo	slower	0.733 ± 0.17	2427 ± 16 ng/mL	1.1		2349 ± 15	−0.5	4.98	3,654,298 ± 430,890 ng·h/mL	3,654,643 ± 431,153 ng·h/mL	0.02 ± 0.00	28.6 ± 0.8	−4.7	8291 ± 91	3.6	30.4 ± 0.6	7918 ± 107	−4.3	0.8	
CC1(C)S[C@@H]2[C@H](NC(=O)[C@@H](C(=O)O)c3ccsc3)C(=O)N2[C@H]1C(=O)O [Ticarcillin S]	rapidly absorbed in vivo		827.8 ± 63.2	2,465 ± 12 ng/mL	2.7		2457 ± 19	1.3	4.98	3270 ± 262 ng·h/mL	3274 ± 264 ng·h/mL	12.2 ± 0.68	30.8 ± 1.3	2.7	7985 ± 93	−0.2	28.8 ± 0.9	7931 ± 113	−2.3	−0.6	
CC1(C)S[C@@H]2[C@H](NC(=O)[C@H](C(=O)O)c3ccsc3)C(=O)N2[C@H]1C(=O)O [ticarcillin]						−4.3% to 3.2															
